The record followed here is patent US10800792B2, “Inhibitors of Bruton's tyrosine kinase and method of their use” (JANSSEN PHARMACEUTICA NV, priority 2015, dated 2020).

Each structure is given as a SMILES string.

The target of the test is unphosphorylated-BTK kinase domain (UP-BTK), GST-tagged human BTK (389-659aa) (Homo sapiens (Human), UniProt Q06187). The experiment in a line: BTK kinase Lanthascreen binding assay. The following applies: unphosphorylated-BTK kinase domain, 50 nM Tracer 236, 60 minutes; pIC50 = negative log of the IC50 in molar. The procedure, abridged: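 Compound binding to the unphosphorylated kinase domain was monitored by displacement of a fluorescently labelled tracer in a Lanthascreen format. Potency is given as pIC50, the negative log of the molar IC50.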
Sequence of unphosphorylated-BTK kinase domain (UP-BTK), GST-tagged human BTK (389-659aa) (Q06187 389-659): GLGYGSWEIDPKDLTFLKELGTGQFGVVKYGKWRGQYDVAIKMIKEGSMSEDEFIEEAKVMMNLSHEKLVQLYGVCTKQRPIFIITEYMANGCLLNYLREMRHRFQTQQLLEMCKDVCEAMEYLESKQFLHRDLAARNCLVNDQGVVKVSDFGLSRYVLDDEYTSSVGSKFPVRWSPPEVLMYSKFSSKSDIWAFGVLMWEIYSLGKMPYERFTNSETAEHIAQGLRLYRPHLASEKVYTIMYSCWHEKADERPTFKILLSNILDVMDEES

For the compound `Cc1cc(Oc2ccccc2)ccc1N1C(=O)Nc2c(C(=O)N[C@@H]3CCN(C(=O)CN(C)C)C3)sc3nccc1c23` [Example 384, (R)—N-(1-(2-(Dimethylamino)acetyl)pyrrolidin-3-yl)-5-(2-methyl-4-phenoxyphenyl)-4-oxo-4,5-dihydro-3H-1-thia-3,5,8-triazaacenaphthylene-2-carboxamide], the “BTK_I_binding pIC50” value is given as 7.1.

`C/C=C(\C#N)C(=O)N1CCC[C@@H](NC(=O)c2sc3nccc4c3c2NC(=O)N4c2ccc(Oc3ccccc3)cc2C)C1` [Example 385, (R,E)-N-(1-(2-Cyanobut-2-enoyl)piperidin-3-yl)-5-(2-methyl-4-phenoxyphenyl)-4-oxo-4,5-dihydro-3H-1-thia-3,5,8-triazaacenaphthylene-2-carboxamide]: the “BTK_I_binding pIC50” value was found to be 7.9.

In the case of `Cc1cc(Oc2ccccc2)ccc1N1C(=O)Nc2c(C(=O)N[C@@H]3CCCN(C(=O)[C@@H]4CCN4)C3)sc3nccc1c23` [Example 386, N—((R)-1-((S)-Azetidine-2-carbonyl)piperidin-3-yl)-5-(2-methyl-4-phenoxyphenyl)-4-oxo-4,5-dihydro-3H-1-thia-3,5,8-triazaacenaphthylene-2-carboxamide], the “BTK_I_binding pIC50” value is listed as 6.9.

As for `CNC/C=C(\F)C(=O)N1CCC[C@@H](NC(=O)c2sc3nccc4c3c2NC(=O)N4c2ccc(Oc3ccccc3)cc2C)C1` [Example 388, (R,Z)—N-(1-(2-Fluoro-4-(methylamino)but-2-enoyl)piperidin-3-yl)-5-(2-methyl-4-phenoxyphenyl)-4-oxo-4,5-dihydro-3H-1-thia-3,5,8-triazaacenaphthylene-2-carboxamide], the “BTK_I_binding pIC50” value amounted to 7.1.

In the case of `Cc1cc(Oc2ccccc2)ccc1N1C(=O)Nc2c(C(=O)N[C@@H]3CCCN(C(=O)CN4CCCC4)C3)sc3nccc1c23` [Example 389, (R)-5-(2-Methyl-4-phenoxyphenyl)-4-oxo-N-(1-(2-(pyrrolidin-1-yl)acetyl)piperidin-3-yl)-4,5-dihydro-3H-1-thia-3,5,8-triazaacenaphthylene-2-carboxamide], the “BTK_I_binding pIC50” value came to 7.0.

For the compound `C=CC(=O)N1CCC[C@@H](NCc2sc3nccc4c3c2NC(=O)N4c2ccc(Oc3ccccc3)cc2C)C1` [Example 390, (R)-2-(((1-Acryloylpiperidin-3-yl)amino)methyl)-5-(2-methyl-4-phenoxyphenyl)-3H-1-thia-3,5,8-triazaacenaphthylen-4(5H)-one], the “BTK_I_binding pIC50” value was determined as 6.9.

Turning to `CNCC(=O)N1CC[C@@H](NC(=O)c2sc3nccc4c3c2NC(=O)N4c2ccc(Oc3ccccc3)cc2C)C1` [Example 391, (R)-5-(2-Methyl-4-phenoxyphenyl)-N-(1-(2-(methylamino)acetyl)pyrrolidin-3-yl)-4-oxo-4,5-dihydro-3H-1-thia-3,5,8-triazaacenaphthylene-2-carboxamide], the “BTK_I_binding pIC50” value stood at 7.2.

For `Cc1cc(Oc2ccccc2)ccc1N1C(=O)Nc2c(C(=O)N[C@@H]3CCN(C(=O)CN)C3)sc3nccc1c23` [Example 392, (R)—N-(1-(2-Aminoacetyl)pyrrolidin-3-yl)-5-(2-methyl-4-phenoxyphenyl)-4-oxo-4,5-dihydro-3H-1-thia-3,5,8-triazaacenaphthylene-2-carboxamide], the “BTK_I_binding pIC50” value was 7.4.

Take `Cc1cc(Oc2ccccc2)ccc1N1C(=O)Nc2c(C(=O)N[C@@H]3CCCN(C(=O)CN4CCCCC4)C3)sc3nccc1c23` [Example 393, (R)-5-(2-Methyl-4-phenoxyphenyl)-4-oxo-N-(1-(2-(piperidin-1-yl)acetyl)piperidin-3-yl)-4,5-dihydro-3H-1-thia-3,5,8-triazaacenaphthylene-2-carboxamide]: the “BTK_I_binding pIC50” value came to 6.8.

Regarding `Cc1cc(Oc2ccccc2)ccc1N1C(=O)Nc2c(C(=O)N[C@@H]3CCCN(C(=O)CN4CCOCC4)C3)sc3nccc1c23` [Example 394, (R)-5-(2-Methyl-4-phenoxyphenyl)-N-(1-(2-morpholinoacetyl)piperidin-3-yl)-4-oxo-4,5-dihydro-3H-1-thia-3,5,8-triazaacenaphthylene-2-carboxamide], the “BTK_I_binding pIC50” value was found to be 6.8.

With `Cc1cc(Oc2ccccc2)ccc1N1C(=O)Nc2c(C(=O)N[C@@H]3CCN(C(=O)CCl)C3)sc3nccc1c23` [Example 395, (R)—N-(1-(2-Chloroacetyl)pyrrolidin-3-yl)-5-(2-methyl-4-phenoxyphenyl)-4-oxo-4,5-dihydro-3H-1-thia-3,5,8-triazaacenaphthylene-2-carboxamide], the “BTK_I_binding pIC50” value amounted to 8.0.

In the case of `Cc1cc(Oc2ccccc2)ccc1N1C(=O)Nc2c(C(=O)N[C@@H]3CCCN(C(=O)CCl)C3)sc3nccc1c23` [Example 396, (R)—N-(1-(2-Chloroacetyl)piperidin-3-yl)-5-(2-methyl-4-phenoxyphenyl)-4-oxo-4,5-dihydro-3H-1-thia-3,5,8-triazaacenaphthylene-2-carboxamide], the “BTK_I_binding pIC50” value is 7.8.

On to `C=CC(=O)N1CCC[C@@H](NC(=O)c2sc3nccc4c3c2NC(=O)N4c2ccc(-c3cccs3)cc2)C1` [Example 397, (R)—N-(1-Acryloylpiperidin-3-yl)-4-oxo-5-(4-(thiophen-2-yl)phenyl)-4,5-dihydro-3H-1-thia-3,5,8-triazaacenaphthylene-2-carboxamide], for which the “BTK_I_binding pIC50” value is 6.4.

Turning to `CC(C)Oc1ccc(N2C(=O)Nc3c(C(=O)N[C@@H]4CCCN(C(=O)/C(C#N)=C/C5CC5)C4)sc4nccc2c34)cc1` [Example 399, (R,E)-N-(1-(2-Cyano-3-cyclopropylacryloyl)piperidin-3-yl)-5-(4-isopropoxyphenyl)-4-oxo-4,5-dihydro-3H-1-thia-3,5,8-triazaacenaphthylene-2-carboxamide], the “BTK_I_binding pIC50” value was 7.5.

On to `C=CC(=O)N1CCC[C@@H](NC(=O)c2sc3nccc4c3c2NC(=O)N4c2ccc(OC(C)C)cc2)C1` [Example 400, (R)—N-(1-Acryloylpiperidin-3-yl)-5-(4-isopropoxyphenyl)-4-oxo-4,5-dihydro-3H-1-thia-3,5,8-triazaacenaphthylene-2-carboxamide], for which the “BTK_I_binding pIC50” value turned out to be 6.9.

With `C/C(=C\C1CC1)C(=O)N1CCC[C@@H](NC(=O)c2sc3nccc4c3c2NC(=O)N4c2ccc(Oc3ccccc3)cc2C)C1` [Example 401, (R,E)-N-(1-(3-Cyclopropyl-2-methylacryloyl)piperidin-3-yl)-5-(2-methyl-4-phenoxyphenyl)-4-oxo-4,5-dihydro-3H-1-thia-3,5,8-triazaacenaphthylene-2-carboxamide], the “BTK_I_binding pIC50” value is recorded as 6.5.

Consider `Cc1cc(Oc2ccccc2)ccc1N1C(=O)Nc2c(C(=O)N[C@@H]3CCCN(C(=O)/C=C/CN4CCOCC4)C3)sc3nccc1c23` [Example 403, (R,E)-5-(2-Methyl-4-phenoxyphenyl)-N-(1-(4-morpholinobut-2-enoyl)piperidin-3-yl)-4-oxo-4,5-dihydro-3H-1-thia-3,5,8-triazaacenaphthylene-2-carboxamide], for which the “BTK_I_binding pIC50” value is 6.4.

With `C=CC(=O)N1CCC[C@@H](NC(=O)c2sc3nccc4c3c2NC(=O)N4c2ccc3sccc3c2)C1` [Example 404, (R)—N-(1-Acryloylpiperidin-3-yl)-5-(benzo[b]thiophen-5-yl)-4-oxo-4,5-dihydro-3H-1-thia-3,5,8-triazaacenaphthylene-2-carboxamide], the “BTK_I_binding pIC50” value is listed as 6.1.
